The target in this experiment is T1, Cys12 of the KRAS 4B G12C protein (Homo sapiens, UniProt P01116, G12C).
T1 construct: This protein contained 188 amino acids in total, including an N-terminal 6-Histidine tag; made in house; host or cells: E. coli BL21
In words: In vitro covalent adduct formation (CAF) assay, LC-MS intact mass. Format: binding. The conditions noted are these: for % CAF 10 uM @ 60 min: 10 uM compound, 60 min incubation. The method in brief: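 GDP-loaded (>95%) His-TEV-tagged KRAS 4B G12C (residues 1–169), 5 μM in TBS pH 7.4, incubated with 10 μM compound (4% DMSO) at 22° C for one hour. Intact-protein LC-MS gave free:adduct ratios, reported as percent protein modified; duplicate runs.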

`C=CC(=O)N1[C@H](C)CN(c2nc(=O)n3c4c(c(-c5ccc(F)cc5F)c(C(F)(F)F)cc24)SC[C@@H](OCCN(C)C)C3)C[C@@H]1C` [Example 1034, (3S)-8-((3S,5R)-4-acryloyl-3,5-dimethylpiperazin-1-yl)-11-(2,4-difluorophenyl)-3-(2-(dimethylamino)ethoxy)-10-(trifluoromethyl)-3,4-dihydro-2H,6H-[1,4]thiazepino[2,3,4-ij]quinazolin-6-one]: the “CAF (% binding after 60 min)” value is on record as 97%.

Take `C=CC(=O)N1[C@H](C)CN(c2nc(=O)n3c4c(c(-c5ccc(F)c(Cl)c5)c(C(F)(F)F)cc24)SC[C@@H](OCCN(C)C)C3)C[C@@H]1C` [Example 1035, (S)-8-((3S,5R)-4-acryloyl-3,5-dimethylpiperazin-1-yl)-11-(3-chloro-4-fluorophenyl)-3-(2-(dimethylamino)ethoxy)-10-(trifluoromethyl)-3,4-dihydro-2H,6H-[1,4]thiazepino[2,3,4-ij]quinazolin-6-one]: the “CAF (% binding after 60 min)” value came out at 97%.

Turning to `C=CC(=O)N1[C@H](C)CN(c2nc(=O)n3c4c(c(-c5cc(Cl)c(F)cc5F)c(C(F)(F)F)cc24)SC[C@@H](OCCN(C)C)C3)C[C@@H]1C` [Example 1036, (3S)-8-((3S,5R)-4-acryloyl-3,5-dimethylpiperazin-1-yl)-11-(5-chloro-2,4-difluorophenyl)-3-(2-(dimethylamino)ethoxy)-10-(trifluoromethyl)-3,4-dihydro-2H,6H-[1,4]thiazepino[2,3,4-ij]quinazolin-6-one], the “CAF (% binding after 60 min)” value is 97%.

As for `C=CC(=O)N1CCN(c2nc(=O)n3c4c(c(-c5ccc(F)cc5)c(C(F)(F)F)cc24)SC[C@H](OC)C3)CC1` [Example 1037, (R)-8-(4-acryloylpiperazin-1-yl)-11-(4-fluorophenyl)-3-methoxy-10-(trifluoromethyl)-3,4-dihydro-2H,6H-[1,4]thiazepino[2,3,4-ij]quinazolin-6-one], the “CAF (% binding after 60 min)” value was determined as 96%.

In the case of `C=CC(=O)N1CCN(c2nc(=O)n3c4c(c(-c5ccc(F)cc5)c(C(F)(F)F)cc24)SC[C@@H](OC)C3)CC1` [Example 1038, (S)-8-(4-acryloylpiperazin-1-yl)-11-(4-fluorophenyl)-3-methoxy-10-(trifluoromethyl)-3,4-dihydro-2H,6H-[1,4]thiazepino[2,3,4-ij]quinazolin-6-one], the “CAF (% binding after 60 min)” value was 97%.

With `C=CC(=O)N1[C@H](C)CN(c2nc(=O)n3c4c(c(-c5ccc(F)cc5)c(Cl)cc24)SC[C@H](OC)C3)C[C@@H]1C` [Example 1039, (R)-8-((3S,5R)-4-acryloyl-3,5-dimethylpiperazin-1-yl)-10-chloro-11-(4-fluorophenyl)-3-methoxy-3,4-dihydro-2H,6H-[1,4]thiazepino[2,3,4-ij]quinazolin-6-one], the “CAF (% binding after 60 min)” value is 96%.

On to `C=CC(=O)N1[C@H](C)CN(c2nc(=O)n3c4c(c(-c5ccc(F)cc5)c(Cl)cc24)SC[C@@H](OC)C3)C[C@@H]1C` [Example 1040, (S)-8-((3S,5R)-4-acryloyl-3,5-dimethylpiperazin-1-yl)-10-chloro-11-(4-fluorophenyl)-3-methoxy-3,4-dihydro-2H,6H-[1,4]thiazepino[2,3,4-ij]quinazolin-6-one], for which the “CAF (% binding after 60 min)” value is 96%.

With `C=CC(=O)N1CCN(c2nc(=O)n3c4c(c(-c5ccc(F)c(Cl)c5)c(C(F)(F)F)cc24)SC[C@H](OC)C3)CC1` [Example 1041, (R)-8-(4-acryloylpiperazin-1-yl)-11-(3-chloro-4-fluorophenyl)-3-methoxy-10-(trifluoromethyl)-3,4-dihydro-2H,6H-[1,4]thiazepino[2,3,4-ij]quinazolin-6-one], the “CAF (% binding after 60 min)” value worked out at 97%.

Turning to `C=CC(=O)N1CCN(c2nc(=O)n3c4c(c(-c5ccc(F)c(Cl)c5)c(C(F)(F)F)cc24)SC[C@@H](OC)C3)CC1` [Example 1042, (S)-8-(4-acryloylpiperazin-1-yl)-11-(3-chloro-4-fluorophenyl)-3-methoxy-10-(trifluoromethyl)-3,4-dihydro-2H,6H-[1,4]thiazepino[2,3,4-ij]quinazolin-6-one], the “CAF (% binding after 60 min)” value was 97%.

Regarding `C=CC(=O)N1CCN(c2nc(=O)n3c4c(c(-c5ccc(F)c(Cl)c5)c(C(F)(F)F)cc24)SC[C@H](OC)C3)CC1` [Example 1043, (R)-8-(4-acryloylpiperazin-1-yl)-11-(3-chloro-4-fluorophenyl)-3-methoxy-10-(trifluoromethyl)-3,4-dihydro-2H,6H-[1,4]thiazepino[2,3,4-ij]quinazolin-6-one], the “CAF (% binding after 60 min)” value is reported as 97%.

`C=CC(=O)N1[C@H](C)CN(c2nc(=O)n3c4c(c(-c5ccc(F)c(Cl)c5)c(C(F)(F)F)cc24)SC[C@H](OC)C3)C[C@@H]1C` [Example 1045, (R)-8-((3S,5R)-4-acryloyl-3,5-dimethylpiperazin-1-yl)-11-(3-chloro-4-fluorophenyl)-3-methoxy-10-(trifluoromethyl)-3,4-dihydro-2H,6H-[1,4]thiazepino[2,3,4-ij]quinazolin-6-one]: the “CAF (% binding after 60 min)” value stood at 96%.

As to `C=CC(=O)N1[C@H](C)CN(c2nc(=O)n3c4c(c(-c5ccc(F)c(Cl)c5)c(C(F)(F)F)cc24)SC[C@@H](OC)C3)C[C@@H]1C` [Example 1046, (S)-8-((3S,5R)-4-acryloyl-3,5-dimethylpiperazin-1-yl)-11-(3-chloro-4-fluorophenyl)-3-methoxy-10-(trifluoromethyl)-3,4-dihydro-2H,6H-[1,4]thiazepino[2,3,4-ij]quinazolin-6-one], the “CAF (% binding after 60 min)” value turned out to be 96%.

As for `C=CC(=O)N1[C@H](C)CN(c2nc(=O)n3c4c(c(-c5cc(Cl)c(F)cc5F)c(C(F)(F)F)cc24)SCC2(COC2)C3)C[C@@H]1C` [Example 1100, 8′-((3S,5R)-4-acryloyl-3,5-dimethylpiperazin-1-yl)-11′-(5-chloro-2,4-difluorophenyl)-10′-(trifluoromethyl)-2′H,4′H,6′H-spiro[oxetane-3,3′-[1,4]thiazepino [2,3,4-ij]quinazolin]-6′-one], the “% CAF 10 uM @ 60 min” value came out at 88.8%.

On to `C=CC(=O)N1[C@H](C)CN(c2nc(=O)n3c4c(c(-c5ccc(F)cc5)c(C(F)(F)F)cc24)SC[C@@H]3COC)C[C@@H]1C` [Example 1103, (S)-7-((3S,5R)-4-acryloyl-3,5-dimethylpiperazin-1-yl)-10-(4-fluorophenyl)-3-(methoxymethyl)-9-(trifluoromethyl)-2,3-dihydro-5H-[1,4]thiazino[2,3,4-ij]quinazolin-5-one], for which the “% CAF 10 uM @ 60 min” value is listed as 98%.

`C=CC(=O)N1[C@H](C)CN(c2nc(=O)n3c4c(c(-c5ccc(F)cc5F)c(C(F)(F)F)cc24)SCC2(CN(CC)C2)C3)C[C@@H]1C` [Example 1104, 8-((3S,5R)-4-acryloyl-3,5-dimethylpiperazin-1-yl)-11-(2,4-difluorophenyl)-1′-ethyl-10-(trifluoromethyl)-2H-spiro[[1,4]thiazepino[2,3,4-ij]quinazoline-3,3′-azetidin]-6(4H)-one]: the “% CAF 10 uM @ 60 min” value came out at 97.2%.

Turning to `C=CC(=O)N1[C@H](C)CN(c2nc(=O)n3c4c(c(-c5cc(Cl)c(F)cc5F)c(C(F)(F)F)cc24)SC[C@H](N2CCOCC2)C3)C[C@@H]1C` [Example 1105, (3R)-8-((3S,5R)-4-acryloyl-3,5-dimethylpiperazin-1-yl)-11-(5-chloro-2,4-difluorophenyl)-3-morpholino-10-(trifluoromethyl)-3,4-dihydro-2H,6H-[1,4]thiazepino [2,3,4-ij]quinazolin-6-one], the “% CAF 10 uM @ 60 min” value turned out to be 95.6%.

In the case of `C=CC(=O)N1CCN(c2nc(=O)n3c4c(c(-c5ccc(F)cc5)c(C(F)(F)F)cc24)SC[C@@H]3COC)CC1` [Example 1106, (S)-7-(4-acryloylpiperazin-1-yl)-10-(4-fluorophenyl)-3-(methoxymethyl)-9-(trifluoromethyl)-2,3-dihydro-5H-[1,4]thiazino[2,3,4-ij]quinazolin-5-one], the “% CAF 10 uM @ 60 min” value is reported as 98.2%.

As to `C=CC(=O)N1C[C@H](C)N(c2nc(=O)n3c4c(c(-c5ccc(F)cc5)c(C(F)(F)F)cc24)SCC2(COC2)C3)C[C@H]1C` [Example 1111, 8′-((2S,5R)-4-acryloyl-2,5-dimethylpiperazin-1-yl)-11′-(4-fluorophenyl)-10′-(trifluoromethyl)-2′H,4′H,6′H-spiro[oxetane-3,3′-[1,4]thiazepino [2,3,4-ij]quinazolin]-6′-one], the “% CAF 10 uM @ 60 min” value was 95.4%.

`C=CC(=O)N1[C@H](C)CN(c2nc(=O)n3c4c(c(-c5ccc(F)cc5)c(C(F)(F)F)cc24)SC[C@H](N2CCOCC2)C3)C[C@@H]1C` [Example 1112, (R)-8-((3S,5R)-4-acryloyl-3,5-dimethylpiperazin-1-yl)-11-(4-fluorophenyl)-3-morpholino-10-(trifluoromethyl)-3,4-dihydro-2H,6H-[1,4]thiazepino [2,3,4-ij]quinazolin-6-one]: the “% CAF 10 uM @ 60 min” value is listed as 92.4%.

Consider `C=CC(=O)N1[C@H](C)CN(c2nc(=O)n3c4c(c(-c5ccc(F)cc5F)c(Cl)cc24)SC[C@@H]3COC)C[C@@H]1C` [Example 1113, (3S)-7-((3S,5R)-4-acryloyl-3,5-dimethylpiperazin-1-yl)-9-chloro-10-(2,4-difluorophenyl)-3-(methoxymethyl)-2,3-dihydro-5H-[1,4]thiazino[2,3,4-ij]quinazolin-5-one], for which the “% CAF 10 uM @ 60 min” value was 96.8%.

For `C=CC(=O)N1CCN(c2nc(=O)n3c4c(c(-c5ccc(F)cc5)c(C(F)(F)F)cc24)SCC2(COC2)C3)CC1` [Example 1116, 8′-(4-acryloylpiperazin-1-yl)-11′-(4-fluorophenyl)-10′-(trifluoromethyl)-2′H,4′H,6′H-spiro[oxetane-3,3′-[1,4]thiazepino [2,3,4-ij]quinazolin]-6′-one], the “% CAF 10 uM @ 60 min” value is on record as 98.4%.

Values taken from patent US20230107642A1 (Erasca, Inc., priority 2020, published 2023).
